Laboratory results as given in patent US20050244959A1, “Methods for inducing active hepatocytes proliferation, kits using such methods and uses of said kits” (priority 2004, published 2005).

What was measured:
[1] = system: rat hepatocytes in coculture; experiment: Inhibition of extracellular matrix remodeling: hepatocyte DNA synthesis in coculture; format: cell-based; details: phenanthroline 1 μM added to cocultures treated with EGF for 24 h and then with TNFα
Protocol: (§1) Hepatocyte DNA synthesis is measured by using BrdU (bromodeoxyuridine) labeling. BrdU incorporation in DNA is detected by immunohistochemistry using the Cell Proliferation Kit (Amersham). The number of labeled hepatocytes is determined (5 fields per dish) in order to calculate the percentage of BrdU incorporation.
7 day-old cocultures are stimulated with EGF and then with TNFα for 24 h periods. Factors are added in a FCS-free medium. Inhibition of extracellular matrix degradation is induced with 1,10-Phenanthroline monohydrate (Sigma), a chelator of metal ions which inhibits the metalloproteinase activity. This compound is soluble in dimethylsulfoxyde and is used at 1 μM.

human hepatocytes = experiment: DNA synthesis by BrdU incorporation in pure culture of human hepatocytes; format: cell-based; details: stimulated 24 h after seeding for 48 h
Protocol: Freshly isolated hepatocytes are seeded on plastic dishes at 5×10^4 cells per cm2 in a William's E medium (Eurobio) supplemented with 2 mM L-glutamine (Gibco), 0,1% bovine serum albumin (BSA, Sigma), 100 μg/ml streptomycin, 100 Ul/ml penicillin (Eurobio), 50 μg/ml gentamycine (Sigma), 5 μg/ml bovine insulin (Sigma), and 10% fetal calf serum (HyClone).
Twenty four hours after seeding, human hepatocytes are stimulated with recombinant human TNFα (Promokine, 10 ng/ml) and recombinant human EGF (Promega, 50 ng/ml). These factors are added in William's E medium (Eurobio) supplemented with 2 mM L-glutamine (Gibco), 0,1% bovine serum albumin (BSA, Sigma), 100 μg/ml streptomycin, 100 Ul/ml penicillin (Eurobio), 50 μg/ml gentamycine (Sigma), 5 μg/ml bovine insulin (Sigma), 1.4×10^-6 M hydrocortisone hemisuccinate (Roussel), 10% fetal calf serum. This medium is renewed every day and stimulation lasts at least 2 days.
BrdU is incubated in medium during the last 24 h of treatment. Then pure cultures are fixed with a mixture of 90% ethanol, 5% acid acetic and 5% water for 20 min at 4° C. BrdU incorporation in DNA is detected by immunohistochemistry using the Cell Proliferation kit (Amersham). Next, cytoplasm and nuclei are stained in blue with Hemalun (Merck). The numbers of labeled hepatocytes are determined (5 fields per dish) in order to calculate percentage of BrdU incorporation.

[2] = system: cyclin D1, EF21, cyclin E, Cdk1; experiment: Expression of cell cycle markers in coculture; format: cell-based, rat; details: successive 24 h treatments
Protocol: A test is provided to analyze the mechanism of cell cycle blockage or progression (early G1, Late G1, S and M) induced by drugs by studying the expression of cell cycle markers which sign different steps of cell cycle (cyclin D1, E2 F1, Cdk2, cyclin E, Cdk1, cyclin B, PCNA, alpha tubulin). Successive 24 h treatments of cocultures by molecules added alone or in combination with EGF or TNFα are used to determine the effect of each molecule.
Cells are arrested at each time (24 and 48 h) and protein extracts are prepared and separated in SDS-polyacrylamide gel. Cell cycle markers are analyzed by western blot using corresponding antibodies.

extracellular matrix = experiment: Extracellular matrix deposition analysis (reticulin staining) in coculture; format: cell-based, rat; details: 7 day-old cocultures
Protocol: Matrix fibers are visualized in cocultures fixed with a mixture of 4% paraformaldehyde and 2.5% glutaraldehyde in 0.1 M cacodylate buffer (pH 7.4) for 15 min at 4° C. Then the reticulin staining by silver impregnation of extracellular matrix is carried out according to the method of Gordon and Sweets and applied to coculture (Exp Cell Res 1984; J Cell Biol 1991). Matrix components are analysed by immunostaining using antibodies against fibronectin, collagen I, collagen III)

[3] = system: rat hepatocytes in coculture with rat biliary epithelial cells (RLEC); experiment: Hepatocyte DNA synthesis by BrdU labeling in rat hepatocyte/RLEC coculture; format: cell-based
Protocol: Freshly isolated hepatocytes are seeded on plastic dishes at 7×10^4 cells per cm2 in a mixture of 75% minimal essential medium and 25% 199 medium (Eurobio), supplemented with 2 mM L-glutamine, 0,1% bovine serum albumin (BSA, Sigma), 100 μg/ml streptomycin, 100 Ul/ml penicillin, 5 μg/ml bovine insulin (Sigma), 1.4×10^-6 M hydrocortisone hemisuccinate (Roussel) and 10% fetal calf serum (Hyclone). This medium is called “basal medium”.
After cell adhesion, approximately 4 hours after seeding, RLEC, previously trypsinized, are added on spread hepatocytes at 2×10^5 cells per cm2 in basal medium.
Twenty four hours later, the medium is removed and replaced by a medium supplemented in 7×10^-5 M hydrocortisone hemisuccinate, which promotes hepatocyte differentiation and survival. This medium is renewed everyday for 4 days. Then, the concentration of hydrocortisone hemisuccinate is decreased to 7×10^-6 M for 2 days.
7 day-old cocultures are stimulated with human recombinant EGF (50 ng/ml, Promega) and human recombinant TNF-alpha (10 ng/ml, Promokine) in basal medium for 3 to 10 days. The medium is renewed everyday. As control, cocultures exposed to TNFα alone or EGF are used.
To induce several rounds of hepatocyte proliferation, 7 day-old cocultures are stimulated with human recombinant EGF (50 ng/ml) and human recombinant TNFα (10 ng/ml) in basal medium, for 10 days. Then, a pause in stimulation is performed for 4 days, during which cells are maintained in medium supplemented in 7×10^-6 M hydrocortisone hemisuccinate. Next, cocultures are treated with EGF and TNFα in basal medium for 10 days.
as §1

pro-MMP9 = experiment: Gelatin zymography of coculture supernatant; format: cell-based, rat; details: FCS-free medium, 24 h
Protocol: 7 day-old cocultures are stimulated with different combinations of TNFα and/or EGF in a FCS-free medium for 24 h. Twenty μl of supernatant are electrophoresed under nonreducing conditions on 12% SDS-polyacrylamide gel containing 0,1% bovine skin gelatin (Sigma) as substrate. After electrophoresis, the gel is washed twice with 2.5% Triton X-100 for 10 min and twice with water for 20 min. After incubation overnight at 37° C. in reaction buffer (50 mM Tris-HCL, pH 8; 5 mM CaCl2; 5 μM ZnCl2), the gel is stained with Coomassie Brillant Blue and destained. Clear zones in blue background indicate the presence of metalloproteinase pro-MMP9 activity; 5% FCS is used as positive control.

Compound | effect on hepatocyte cell cycle progression [2] | extracellular matrix (ECM) deposition (extracellular matrix) | Pro-MMP9 (92 Kda) expression by zymography (pro-MMP9) | also measured
O.c1cnc2c(c1)ccc1cccnc12 [phenanthroline, 1,10-Phenanthroline monohydrate] |  |  |  | DNA synthesis [1]: strongly decreased
EGF: human recombinant EGF (50 ng/ml, Promega), growth factor | promotes hepatocyte cell cycle progression to late G1 | very abundant | not detected | hepatocytes with DNA synthesis (S phase entry) (human hepatocytes): 8%; BrdU incorporation under permanent exposure ([3]; continued after a first 10 day-stimulation with TNFα/EGF, from day 10): gradually decreases
TGFα: transforming growth factor alpha (20 ng/ml), replacing EGF |  |  |  | DNA synthesis when EGF is replaced by another growth factor ([3]; with TNFα, HGF 25 ng/ml, TGFα 20 ng/ml, compared with TNFα/EGF): highest DNA synthesis
TNFα | allows S entry through Cdk1 induction | very sparse | expressed | 
interleukin 6: cytokine known to modulate extracellular matrix remodeling, used at 5 ng/ml |  |  |  | hepatocyte response to growth factors (DNA replication) ([3]; coculture, 5 ng/ml): allow hepatocytes to respond to growth factors
